# Results from the supplement of paper PMC11208160.
# Assay: recombinant UMI read abundance after kanamycin selection (control-corrected) (log10(CPM+1)); higher = more efficient recombination; extreme values may be limits of the assay; sequences stand for … in AGTGCAGAGAAAATCGGCCAGTTTTCTCTGCCTGCAGTCCGCATGCCGTGGGACCCCTTGGGTTCTAACCTGTTGCCTAGATTTATGCAGCGGACTGCCTTTCTCCCAAAGTGATAAACCGG…AGGTTGGTTTCACT; site = the 11-nt donor
# Experimental: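 Pooled E. coli donor-specificity screen for the IS621 bridge recombinase. Each library member carries a reprogrammed 11-nt donor and a full-length LE bridge RNA expressed in cis from the natural promoter, with a paired donor-binding loop (8-nt LDG + 4-nt RDG) and a target-binding loop fixed to T5. It is co-electroporated with a T5 target plasmid; recombinase is induced with 0.07 mM IPTG and recombinants are selected on kanamycin. UMIs are counted as CPM, averaged over two biological replicates and corrected by the unselected control. Molecule = full bridge RNA written as DNA, built from the T5 scaffold: LDG = donor specificity nt 1-8, RDG = reverse complement of nt 8-11.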
# 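Also: IS621 bridge recombinase in Escherichia coli cells against a fixed T5 target plasmid.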
row,Sequence,recombinant UMI read abundance (log10)
1,ACTAGAACATGGACCGGTTTTCCCGGTAATCCGTATTTGAC (site ACTAGAACTGT),2.13
2,ACTAGAACATGGACCGGTTTTCCCGGTAATCCGTATTTGAC (site ACTAGAACTTT),0.322
3,ACTAGAACATGGACCGGTTTTCCCGGTAATCCGTATTTGAT (site ACTAGAACTAT),1.24
4,ACTAGAACATGGACCGGTTTTCCCGGTAATCCGTATTTGAT (site ACTAGAACTCT),0.0111
5,ACTAGAACATGGACCGGTTTTCCCGGTAATCCGTATTTGAT (site ACTAGAACTGT),0
6,ACTAGAACATGGACCGGTTTTCCCGGTAATCCGTATTTGAT (site ACTAGAACTTT),0.0117
7,ACTAGATCATGGACCGGTTTTCCCGGTAATCCGTATTTGAG (site ACTAGAACTCT),0.00628
8,ACTAGATCATGGACCGGTTTTCCCGGTAATCCGTATTTGAG (site ACTAGACCTCT),0.0156
9,ACTAGATCATGGACCGGTTTTCCCGGTAATCCGTATTTGAG (site ACTAGAGCTCT),0.00838
10,ACTAGATCATGGACCGGTTTTCCCGGTAATCCGTATTTGAG (site ACTAGATCTCT),2.52
11,ACTAGTACATGGACCGGTTTTCCCGGTAATCCGTATTTGAG (site ACTAGAACTCT),0.692
12,ACTAGTACATGGACCGGTTTTCCCGGTAATCCGTATTTGAG (site ACTAGCACTCT),0.0245
13,ACTAGTACATGGACCGGTTTTCCCGGTAATCCGTATTTGAG (site ACTAGGACTCT),0.0174
14,ACTAGTACATGGACCGGTTTTCCCGGTAATCCGTATTTGAG (site ACTAGTACTCT),1.35
15,ACTAGTGCATGGACCGGTTTTCCCGGTAATCCGTATTTGGG (site ACTAGTGCTAC),0.0186
16,ACTAGTGCATGGACCGGTTTTCCCGGTAATCCGTATTTGGG (site ACTAGTGCTCC),0.376
17,ACTAGTGCATGGACCGGTTTTCCCGGTAATCCGTATTTGGG (site ACTAGTGCTGC),0
18,ACTAGTGCATGGACCGGTTTTCCCGGTAATCCGTATTTGGG (site ACTAGTGCTTC),0.021

row,Sequence,recombinant UMI read abundance (log10)
1,ACTAGTGCATGGACCGGTTTTCCCGGTAATCCGTATTTGTT (site ACTAGTGCTAA),1.35
2,ACTAGTGCATGGACCGGTTTTCCCGGTAATCCGTATTTGTT (site ACTAGTGCTAC),0.00478
3,ACTAGTGCATGGACCGGTTTTCCCGGTAATCCGTATTTGTT (site ACTAGTGCTAG),1.16
4,ACTAGTGCATGGACCGGTTTTCCCGGTAATCCGTATTTGTT (site ACTAGTGCTAT),0.242
5,ACTATAACATGGACCGGTTTTCCCGGTAATCCGTATTTGAG (site ACTAAAACTCT),0.00383
6,ACTATAACATGGACCGGTTTTCCCGGTAATCCGTATTTGAG (site ACTACAACTCT),0.348
7,ACTATAACATGGACCGGTTTTCCCGGTAATCCGTATTTGAG (site ACTAGAACTCT),0.395
8,ACTATAACATGGACCGGTTTTCCCGGTAATCCGTATTTGAG (site ACTATAACTCT),1.72
9,ACTATACCATGGACCGGTTTTCCCGGTAATCCGTATTTGTA (site ACTATACCTTA),0.0158
10,ACTATTGCATGGACCGGTTTTCCCGGTAATCCGTATTTGGT (site ACTAATGCTAC),0.108
11,ACTATTGCATGGACCGGTTTTCCCGGTAATCCGTATTTGGT (site ACTACTGCTAC),0.0131
12,ACTATTGCATGGACCGGTTTTCCCGGTAATCCGTATTTGGT (site ACTAGTGCTAC),0.023
13,ACTATTGCATGGACCGGTTTTCCCGGTAATCCGTATTTGGT (site ACTATTGCTAC),1.91
14,ACTCAAGCATGGACCGGTTTTCCCGGTAATCCGTATTTGCA (site ACTCAAGCTTG),2.26
15,ACTCAATCATGGACCGGTTTTCCCGGTAATCCGTATTTGAG (site ACTCAATCTCT),1.69
16,ACTCCAACATGGACCGGTTTTCCCGGTAATCCGTATTTGTC (site ACTCCAACTGA),1.34
17,ACTCCAGCATGGACCGGTTTTCCCGGTAATCCGTATTTGAT (site ACTCCAGCTAT),2.13
18,ACTCGCCCATGGACCGGTTTTCCCGGTAATCCGTATTTGTT (site ACTCGCCCTAA),1.08
